Data as given in patent publication US20190375708A1 (VenatoRx Pharmaceuticals, Inc., priority 2018, published 2019).

Columns and labels:
[1] = tested on: HBV replication in HepAD38 cells; test: Anti-HBV replication assay in HepAD38 cells (QPCR of extracellular HBV DNA); type: cell-based, HBV (genotype D, serotype ayw); details: Hepatitis B virus, 168 h, 7 days incubation, extracellular HBV DNA by QPCR, read-out: Anti-HBV EC50
How it was run: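 Steps: seed HepAD38 overnight without tetracycline; refresh medium and add 1 log10 serial dilutions ([…]); incubate 7 days at 37 °C; quantify supernatant HBV DNA by QPCR; derive EC50 from a 4-parameter dose-response fit.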

[2] = In vitro cytotoxicity assay (MTT cell viability) in HepG2 cells; type: cell-based, human; details: human
How it was run: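 HepG2 cells incubated 7 days at 37 °C, 5% CO2 with compounds from 30 μM to 1.0 nM (8 half-log dilutions). Viability read as MTT formazan absorbance at 492 nm, normalised to vehicle controls; CC50 from 4-parameter non-linear regression.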

Compound | EC50 [1] [nM] | CC50 at 7 days [2] [nM]
Cc1cc(NC(=O)c2c(C)c(C(=O)C(=O)NC3(C)CC=CCC3)n(C)c2C)ccc1F (centres unmarked) [Example 694, N-(4-fluoro-3-methylphenyl)-1,2,4-trimethyl-5-(2-((1-methylcyclohex-3-en-1-yl)amino)-2-oxoacetyl)-1H-pyrrole-3-carboxamide] | < 50 | > 30000
Cc1cc(NC(=O)c2c(C)c(C(=O)C(=O)N[C@@H]3C[C@H](O)[C@H]4OC(C)(C)O[C@H]43)n(C)c2C)ccc1F [Example 695, N-(4-fluoro-3-methylphenyl)-5-(2-(((3aS,4R,6S,6aR)-6-hydroxy-2,2-dimethyltetrahydro-4H-cyclopenta[d][1,3]dioxol-4-yl)amino)-2-oxoacetyl)-1,2,4-trimethyl-1H-pyrrole-3-carboxamide] | < 50 | > 30000
CCn1c(C)c(C(=O)Nc2ccc(F)c(C)c2)c(C)c1C(=O)C(=O)N[C@]1(C)CC[C@@H](O)CC1 [Example 696] | < 50 | > 30000
Cc1c(C(=O)Nc2cccc(C(F)F)c2)c(C)n(C)c1C(=O)C(=O)N[C@H]1CC[C@H](O)CC1 [Example 697, N-(3-(difluoromethyl)phenyl)-5-(2-(((1r,4r)-4-hydroxycyclohexyl)amino)-2-oxoacetyl)-1,2,4-trimethyl-1H-pyrrole-3-carboxamide] | < 50 | > 30000
Cc1c(C(=O)Nc2ccc(F)c(F)c2)c(C)n(C)c1C(=O)C(=O)NC1(c2nnn[nH]2)CCCC1 [Example 698, 5-(2-((1-(1H-tetrazol-5-yl)cyclopentyl)amino)-2-oxoacetyl)-N-(3,4-difluorophenyl)-1,2,4-trimethyl-1H-pyrrole-3-carboxmide] | 50 to 499 | > 30000
Cc1cc(NC(=O)c2c(C)c(C(=O)C(=O)NC3(C)CCN(c4nccs4)CC3)n(C)c2C)ccc1F [Example 699, N-(4-fluoro-3-methylphenyl)-1,2,4-trimethyl-5-(2-((4-mmethyl-1-(thiazol-2-yl)piperidin-4-yl)amino)-2-oxoacetyl)-1H-pyrrole-3-carboxamide] | < 50 | 5000 to 30000
Cc1c(C(=O)Nc2cccc(C(F)F)c2)c(C)n(C)c1C(=O)C(=O)N[C@]1(C)CC[C@@H](O)CC1 [Example 700, N-(3-(difluoromethyl)phenyl)-5-(2-(((1r,4r)-4-hydroxy-1-methylcyclohexyl)amino)-2-oxoacetyl)-1,2,4-rimethyl-1H-pyrrole-3-carboxamide] | < 50 | > 30000
Cc1c(C(=O)Nc2cccc(C(F)F)c2)c(C)n(C)c1C(=O)C(=O)N[C@]1(C)CC[C@H](O)CC1 [Example 701, N-(3-(difluoromethyl)phenyl)-5-(2-(((1s,4s)-4-hydroxy-1-methylcyclohexyl)amino)-2-oxoacetyl)-1,2,4-trimethyl-1H-pyrrole-3-carboxamide] | < 50 | > 30000
Cc1cc(NC(=O)c2c(C)c(C(=O)C(=O)NC3(C)CC[C@@H](O)[C@@H](O)C3)n(C)c2C)ccc1F (stereo partly drawn) [Example 702, 5-(2-(((3S,4R)-3,4-dihydroxy-1-methylcyclohexyl)amino)-2-oxoacetyl)-N-(4-fluoro-3-methylphenyl)-1,2,4-trimethyl-1H-pyrrole-3-carboxamide] | < 50 | > 30000
Cc1cc(NC(=O)c2c(C)c(C(=O)C(=O)NC3(C)CC[C@H](O)[C@H](O)C3)n(C)c2C)ccc1F (stereo partly drawn) [Example 703, 5-(2-(((3R,4S)-3,4-dihydroxy-1-methylcyclohexyl)amino)-2-oxoacetyl)-N-(4-fluoro-3-methylphenyl)-1,2,4-trimethyl-1H-pyrrole-3-carboxamide] | < 50 | > 30000
Cc1c(C(=O)Nc2cccc(C(F)F)c2)c(C)n(C)c1C(=O)C(=O)N[C@@H]1CCC[C@@H](O)C1 [Example 704, N-(3-(difluoromethyl)phenyl)-5-(2-(((1R,3R)-3-hydroxycyclohexyl)amino)-2-oxoacetyl)-1,2,4-trimethyl-1H-pyrrole-3-carboxamide] | < 50 | > 30000
Cc1c(C(=O)Nc2cccc(C(F)F)c2)c(C)n(C)c1C(=O)C(=O)N[C@]1(C)C[C@H](O)C1 [Example 705, N-(3-(difluoromethyl)phenyl)-5-(2-(((1s,3s)-3-hydroxy-1-methylcyclobutyl)amino)-2-oxoacetyl)-1,2,4-trimethyl-1H-pyrrole-3-carboxamide] | < 50 | > 30000
Cc1c(C(=O)Nc2ccc(F)c(F)c2)c(C)n(C)c1C(=O)C(=O)N[C@]1(C)CC[C@@H](O)CC1 [Example 706, N-(3,4-difluorophenyl)-5-(2-(((1r,4r)-4-hydroxy-1-methylcyclohexxyl)amino)-2-oxoacetyl)-1,2,4-trimethyl-1H-pyrrole-3-carboxmaide] | < 50 | > 30000
Cc1cc(NC(=O)c2c(C)c(C(=O)C(=O)NC3(C)CCN(C(=O)Nc4ccc(F)c(F)c4)CC3)n(C)c2C)ccc1F [Example 707, N-(3,4-difluorophenyl)-4-(2-(4-((4-fluoro-3-methylphenyl)carbamoyl)-1,3,5-trimethyl-1H-pyrrol-2-yl)-2-oxoacetamido)-4-methylpiperidine-1-carboxamide] | < 50 | 500 to 4990
Cc1cc(NC(=O)c2c(C)c(C(=O)C(=O)NC3(C)CCN(C(=O)c4cn(C)nc4C(F)F)CC3)n(C)c2C)ccc1F [Example 708, 5-(2-((1-(3-(difluoromethyl)-1-methyl-1H-pyrazole-4-carbonyl)-4-methylpiperidin-4-yl)amino)-2-oxoacetyl)-N-(4-fluoro-3-methylphenyl)-1,2,4-trimethyl-1H-pyrrole-3-carboxamide] | < 50 | > 30000
Cc1cc(NC(=O)c2c(C)c(C(=O)C(=O)NC3(C)CCN(C(=O)c4cn[nH]c4)CC3)n(C)c2C)ccc1F [Example 709, N-(4-fluoro-3-methylphenyl)-1,2,4-trimethyl-5-(2-((4-methyl-1-(1H-pyrazole-4-carbonyl)piperidin-4-yl)amino)-2-oxoacetyl)-1H-pyrrole-3-carboxamide] | < 50 | > 30000
Cc1cc(NC(=O)c2c(C)c(C(=O)C(=O)N[C@H]3CNC(=O)C34CC4)n(C)c2C)ccc1F [Example 710, (R)-N-(4-fluoro-3-methylphenyl)-1,2,4-trimethyl-5-(2-oxo-2-((4-oxo-5-azaspiro[2.4]heptan-7-yl)amino)acetyl)-1H-pyrrole-3-carboxamide] | < 50 | > 30000
Cc1cc(NC(=O)c2c(C)c(C(=O)C(=O)N[C@H]3COC[C@@H]3N3CCOCC3)n(C)c2C)ccc1F [Example 711, N-(4-fluoro-3-methylphenyl)-1,2,4-trimethyl-5-(2-(((3R,4R)-4-morpholinotetrahydrofuran-3-yl)amino)-2-oxoacetyl)-1H-pyrrole-3-carboxamide] | < 50 | > 30000
Cc1cc(NC(=O)c2c(C)c(C(=O)C(=O)N[C@@H]3C[C@H](O)[C@@H](O)[C@H]3O)n(C)c2C)ccc1F [Example 712, N-(4-fluoro-3-methylphenyl)-1,2,4-trimethyl-5-(2-oxo-2-(((1R,2S,3R,4S)-2,3,4-trihydroxycyclopentyl)amino)acetyl)-1H-pyrrole-3-carboxamide] | < 50 | > 30000
